The record followed here is publication PMC12633732, “Dynamics of release and activity of select neuropeptides post-bloodmeal in the female mosquito, Aedes aegypti” (The Journal of Experimental Biology, 2025).

Where two headings read alike, the source gives them in different places. Bridge positions count the residues as written; N and C are the ends. Square brackets hold non-standard residues; d marks the D form. Ends that are not written are not given here. Peptide text beside a SMILES is read from it. pGlu = O=C1CC[C@@H](C(=O)O)N1

Experiment [1] has as its system Malpighian tubules (MTs) of adult female A. aegypti. The arrangement: species or system Aedes aegypti. Conditions: for Effect of single diuretic on fluid secretion: 25 nmol l^−1 DH31, 100 nmol l^−1 5HT, 10 nmol l^−1 DH44, 50 nmol l^−1 CDP, 60 min, Fig. 5A. The protocol:
In order to determine fluid secretion rates, modified Ramsay assays were performed as described previously ([Lajevardi et al., 2021]; [Sajadi et al., 2018]). Female adults (4–7 days old) were dissected under physiological Aedes saline adapted from [Petzel et al. (1987)] that contained (in mmol l^−1): 150 NaCl, 25 Hepes, 3.4 KCl, 7.5 NaOH, 1.8 NaHCO3, 1 MgSO4, 1.7 CaCl2 and 5 glucose, and titrated to pH 7.1. Individual MTs were removed and placed in a Sylgard-lined Petri dish containing 20 µl bathing droplets [1:1 mixture of Schneider's Insect Medium (Sigma-Aldrich, Oakville, ON, Canada): Aedes saline], immersed in hydrated mineral oil to prevent evaporation. The proximal end of each tubule was wrapped around a minutien pin to allow for fluid secretion measurements. Dose response analysis for AedaeDH31 was determined by using concentrations ranging from 10^−5 to 10^−12 mol l^−1 on unstimulated MTs. To investigate the effects of collected haemolymph samples on fluid secretion rate, haemolymph samples from both non-blood-fed and blood-fed females were used against unstimulated MTs and allowed to incubate for 60 min before measurement of secreted fluid droplets. To investigate potential additive or synergistic activity, dosages of 25 nmol l^−1 AedaeDH31, 10 nmol l^−1 Rhodnius prolixus DH (CRF-related peptide, DH44), 50 nmol l^−1 CDP, 100 nmol l^−1 5HT, and 1 fmol l^−1 AedaeCAPA-1 were used ([Sajadi et al., 2018], [2020]).

Experiment [2] deals with AedaeDH31-R. Kind of experiment: Heterologous receptor functional activation bioluminescence assay, AedaeDH31-R. The class given is cell-based, Aedes aegypti. The conditions noted are these: for EC50: CHO-K1-aeq cells transiently expressing AedaeDH31-R (pBudCE4.1 Gα15), aequorin luminescence over 20 s, peptides tested up to 10 µmol l^−1, read-out: EC50 on DH31-R. The source says:
(§1) Gene-specific primers were designed to amplify the open reading frame of the AedaeDH31 receptor and Aedaekinin receptor based on previously published sequences [GenBank accession numbers: DH31-R, AAGE02017873 ([Kwon et al., 2012]); kinin-R, AY596453.1 ([Lu et al., 2011]); see Table 1]. The amplified PCR products were purified using a Monarch PCR purification kit (New England Biolabs, Whitby, ON, Canada) and reamplified using modified primers containing restriction sites for subsequent directional cloning in mammalian expression plasmids. Products were A-tailed and cloned into a pGEM-T Easy vector (Promega, Madison, WI, USA) or pCE2 TA/Blunt-Zero vector (GeneBio Systems, Burlington, ON, Canada) and then transformed into 5-alpha high efficiency competent E. coli (New England Biolabs, Whitby, ON, Canada). Base accuracy of purified plasmid DNA miniprep was confirmed by Sanger sequencing (The Centre for Applied Genomics, Sick Kids, Toronto, ON, Canada). The receptor constructs DH31-R and kinin-R were excised using standard restriction enzyme digestion and subcloned into the mammalian expression vectors, pBudCE4.1 Gα15 or pcDNA3.1^+ (Life Technologies, Burlington, ON, Canada), with the former containing a mammalian promiscuous G protein (Gα15), which facilitates coupling of a wide variety of GPCRs to calcium signaling ([Wahedi et al., 2019]). The previously characterized A. aegypti CAPA receptor inserted into pcDNA3.1^+ ([Sajadi et al., 2020]) was also used for transfection of mammalian cells. Plasmid DNA was purified from overnight bacterial cultures using the ZymoPURE II Plasmid Midiprep Kit (Zymo Research, Tustin, CA, USA) following manufacturer guidelines. These three heterologously expressed receptors were used to determine the timing of release and quantify the levels in the haemolymph of CAPA (both CAPA-1 and CAPA-2), DH31 along with kinin neuropeptides in association with blood feeding by adult female mosquitoes.
(§2) Functional activation of the AedaeDH31-R, AedaeCAPA-R, and Aedaekinin-R was assayed using a previously established recombinant Chinese hamster ovary (CHO)-K1 cell line stably expressing aequorin, referred to henceforth as CHO-K1-aeq cells ([Paluzzi et al., 2012a]; [Wahedi and Paluzzi, 2018]). […] Cells were grown and maintained in Dulbecco's modified eagles medium:nutrient F12 (DMEM:F12; 1:1) medium containing 10% heat-inactivated fetal bovine serum (FBS; Wisent, St. Bruno, QC, Canada), 1× antimycotic-antibiotic and 200 µg ml^−1 geneticin (G418 Sulfate). […] Approximately 48 h post-transfection, cells were dislodged from the culture flasks using 5 mmol l^−1 ethylenediaminetetraacetic acid (EDTA; Life Technologies, Burlington, ON, Canada) in DPBS and cells were resuspended in BSA medium (DMEM-F12 medium containing 0.1% bovine serum albumin, 1X antimycotic-antibiotic) at a concentration of 10^6–10^7 cells ml^−1 quantified using a Countess II FL cell counter (Thermo Fisher Scientific, Burlington, ON, Canada). Coelenterazine h (Promega, Madison, WI, USA) was added to the cells to a final concentration of 5 µmol l^−1 and incubated for 3 h, as described previously ([Oryan et al., 2018]) and subsequently, diluted 10-fold in BSA medium and incubated for an additional hour at room temperature. To measure in vivo circulating levels of DH31, kinin and CAPA in female mosquitoes, diluted haemolymph samples collected in 70 µl DPBS droplets (see section 3.2) were loaded in duplicates into 96-well white luminescence plates (Greiner Bio-One, Germany).

Experiment [3] has as its target T1, Aedaekinin-R (Aedes aegypti, UniProt Q5EY37).
T1 sequence (Q5EY37 1-584): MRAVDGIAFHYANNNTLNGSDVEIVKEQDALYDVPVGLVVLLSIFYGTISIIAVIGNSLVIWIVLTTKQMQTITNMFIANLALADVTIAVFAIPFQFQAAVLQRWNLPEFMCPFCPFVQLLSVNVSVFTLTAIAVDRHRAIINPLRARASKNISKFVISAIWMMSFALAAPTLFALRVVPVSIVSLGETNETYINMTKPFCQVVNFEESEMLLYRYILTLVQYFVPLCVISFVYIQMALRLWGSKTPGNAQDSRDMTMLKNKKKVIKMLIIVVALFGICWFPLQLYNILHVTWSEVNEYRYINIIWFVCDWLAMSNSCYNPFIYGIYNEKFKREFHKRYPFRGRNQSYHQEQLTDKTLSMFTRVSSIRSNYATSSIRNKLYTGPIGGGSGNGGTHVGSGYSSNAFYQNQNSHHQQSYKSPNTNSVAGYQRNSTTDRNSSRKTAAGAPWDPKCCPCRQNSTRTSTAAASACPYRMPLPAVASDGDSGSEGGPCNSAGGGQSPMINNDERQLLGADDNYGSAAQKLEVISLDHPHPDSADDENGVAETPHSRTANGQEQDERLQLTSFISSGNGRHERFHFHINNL
The experiment in a line: Heterologous receptor functional activation bioluminescence assay, Aedaekinin-R. The class given is cell-based.
Text: as §1, §2

The target of experiment [4] is T2, AedaeCAPA-R (Aedes aegypti, UniProt A0A7D5D2Z2).
T2 sequence (A0A7D5D2Z2 1-712): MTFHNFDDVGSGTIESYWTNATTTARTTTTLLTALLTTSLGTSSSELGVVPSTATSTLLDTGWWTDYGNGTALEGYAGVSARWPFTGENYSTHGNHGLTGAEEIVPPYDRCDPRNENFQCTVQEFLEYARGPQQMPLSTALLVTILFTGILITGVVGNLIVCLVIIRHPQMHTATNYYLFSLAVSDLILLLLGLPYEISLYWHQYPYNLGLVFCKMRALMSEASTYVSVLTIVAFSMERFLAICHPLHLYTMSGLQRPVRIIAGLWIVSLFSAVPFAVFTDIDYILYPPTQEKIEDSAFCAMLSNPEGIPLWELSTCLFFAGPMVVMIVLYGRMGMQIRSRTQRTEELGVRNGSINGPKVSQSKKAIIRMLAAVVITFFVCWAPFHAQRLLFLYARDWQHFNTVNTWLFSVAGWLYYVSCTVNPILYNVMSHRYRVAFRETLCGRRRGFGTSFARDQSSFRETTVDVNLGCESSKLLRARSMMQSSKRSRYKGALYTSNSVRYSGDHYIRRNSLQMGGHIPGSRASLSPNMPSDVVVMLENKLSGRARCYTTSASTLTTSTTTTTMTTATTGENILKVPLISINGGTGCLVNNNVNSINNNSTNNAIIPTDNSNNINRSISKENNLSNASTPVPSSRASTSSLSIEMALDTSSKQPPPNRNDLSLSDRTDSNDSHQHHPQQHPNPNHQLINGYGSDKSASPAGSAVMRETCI
The experiment in a line: cell-based. The source says: Gene-specific primers were designed to amplify the open reading frame of the AedaeDH31 receptor and Aedaekinin receptor based on previously published sequences [GenBank accession numbers: DH31-R, AAGE02017873 ([Kwon et al., 2012]); kinin-R, AY596453.1 ([Lu et al., 2011]); see Table 1]. The amplified PCR products were purified using a Monarch PCR purification kit (New England Biolabs, Whitby, ON, Canada) and reamplified using modified primers containing restriction sites for subsequent directional cloning in mammalian expression plasmids. […] These three heterologously expressed receptors were used to determine the timing of release and quantify the levels in the haemolymph of CAPA (both CAPA-1 and CAPA-2), DH31 along with kinin neuropeptides in association with blood feeding by adult female mosquitoes.
Functional activation of the AedaeDH31-R, AedaeCAPA-R, and Aedaekinin-R was assayed using a previously established recombinant Chinese hamster ovary (CHO)-K1 cell line stably expressing aequorin, referred to henceforth as CHO-K1-aeq cells ([Paluzzi et al., 2012a]; [Wahedi and Paluzzi, 2018]). […] To measure in vivo circulating levels of DH31, kinin and CAPA in female mosquitoes, diluted haemolymph samples collected in 70 µl DPBS droplets (see section 3.2) were loaded in duplicates into 96-well white luminescence plates (Greiner Bio-One, Germany).

Setting [5] is: CHO-K1-aeq cells transiently expressing Aedaekinin-R (pcDNA3.1+), aequorin luminescence over 20 s, peptides tested up to 10 µmol l^−1, read-out: EC50 on kinin-R.

For the compound `NCCc1c[nH]c2ccc(O)cc12` [5HT, 5-hydroxytryptamine], the “Effect of single diuretic on fluid secretion” value in experiment [1] is recorded as “significantly increased fluid secretion”. With “MQRPQGPSLSVANPIEVLRSRLLLEIARRRMKEQDASRVSKNRQYLQQI-NH2 [DH44]”, the “Effect of single diuretic on fluid secretion” value in experiment [1] is reported as “significantly increased fluid secretion”. The “Luminescence response over background on AedaeDH31-R” value in experiment [2] (10^−6 mol l^−1 dose, Fig. 1B, n=3) is “no detectable activity”. The EC50 in experiment [2] and in experiment [3] (setting [5]) was greater than 10 µM throughout. Regarding “TVDFGLSRGYSGAQEAKHRMAMAVANFAGGP-NH2 [DH31]”, the EC50 in experiment [1] was 0.0136 µM; in experiment [3] (setting [5]), greater than 10 µM. For NPFHSWG-NH2 [CDP], the EC50 in experiment [3] (setting [5]) was 0.0115 µM. As for `CC(C)[C@H](NC(=O)[C@@H]1CCC(=O)N1)C(=O)N[C@H](C(=O)N[C@@H](Cc1ccccc1)C(=O)N[C@@H](CO)C(=O)N[C@@H](CCCNC(=N)N)C(=O)N[C@@H](CC(=O)O)C(=O)N[C@@H](Cc1c[nH]c2ccccc12)C(=O)N[C@@H](CC(N)=O)C(=O)N[C@@H](C)C(N)=O)[C@@H](C)O` [ACP] ([pGlu]VTFSRDWNA-NH2), the EC50 in experiment [2] and in experiment [3] was greater than 10 µM throughout. In the case of AGNSGANSGMWFGPRL-NH2 [PK1], the half-maximal effective concentration (EC50) in experiment [2] and in experiment [3] (setting [5]) was greater than 10 µM each time.

Turning to GPTVGLFAFPRV-NH2 [CAPA1], the figures for the 50% effective concentration (EC50) in experiment [4] and in experiment [3] (setting [5]) were 0.00183 µM and greater than 10 µM, respectively. Regarding `CSCC[C@H](NC(=O)[C@H](CC(N)=O)NC(=O)[C@@H]1CSSC[C@H](NC(=O)[C@H](CC(C)C)NC(=O)[C@H](CO)NC(=O)[C@H](CCSC)NC(=O)[C@@H](N)Cc2ccc(O)cc2)C(=O)N[C@@H](Cc2c[nH]cn2)C(=O)N[C@@H](Cc2ccccc2)C(=O)N[C@@H](CCCCN)C(=O)N[C@@H](CC(C)C)C(=O)N1)C(N)=O` [CNMa] (H-YMSLCHFKLCNM-NH2; disulfide 5-10 (inferred); N-terminus assumed), the EC50 in experiment [2] is greater than 10 µM. The same measure, in the same setting: the result for `CC(C)C[C@@H]1NC(=O)[C@@H](NC(=O)CNC(=O)CNC(=O)[C@@H](N)CCCCN)CSSC[C@@H](C(=O)N[C@@H](Cc2c[nH]c3ccccc23)C(=O)NCC(=O)NCC(=O)N[C@@H](Cc2c[nH]cn2)C(N)=O)NC(=O)[C@H](CO)NC(=O)[C@H](Cc2c[nH]cn2)NC(=O)CNC(=O)[C@H](Cc2ccc(O)cc2)NC(=O)[C@H](CO)NC1=O` [CCHa1] (H-KGGCLSYGHSCWGGH-NH2; disulfide 4-11 (inferred); N-terminus assumed) reads greater than 10 µM. As to `CC(C)C[C@H](NC(=O)[C@@H]1CCC(=O)N1)C(=O)N[C@H](C(=O)N[C@@H](Cc1ccccc1)C(=O)N[C@H](C(=O)N1CCC[C@H]1C(=O)N[C@@H](CO)C(=O)N[C@@H](Cc1c[nH]c2ccccc12)C(N)=O)[C@@H](C)O)[C@@H](C)O` [AKH] ([pGlu]LTFTPSW-NH2), the 50% effective concentration (EC50) in experiment [2] and in experiment [3] was greater than 10 µM throughout. As to PVFFVASRY-NH2 [RYa-1], the EC50 in experiment [2] and in experiment [3] (setting [5]) was greater than 10 µM each time. With `C[C@@H]1NC(=O)[C@H](C)NC(=O)[C@@H](NC(=O)CN)CSSC[C@@H](C(=O)N[C@@H](Cc2ccc(O)cc2)C(=O)NCC(=O)NCC(=O)N[C@@H](Cc2c[nH]cn2)C(N)=O)NC(=O)[C@H](C)NC(=O)[C@H](Cc2c[nH]cn2)NC(=O)CNC(=O)[C@H](Cc2ccccc2)NC1=O` [CCHa2] (H-GCAAFGHACYGGH-NH2; disulfide 2-9 (inferred); N-terminus assumed), in experiment [2], the EC50 was greater than 10 µM.
